From PMC11407620, “Repurposing auranofin and meclofenamic acid as energy-metabolism inhibitors and anti-cancer drugs” (PLOS ONE, 2024) come the findings set out here.

The structures appear in SMILES notation.

The test system of the assay is HeLa cells. Put plainly: Mitophagy assay (MTG/LTR co-localization). It counts as cell-based, human. The note with it: Aur 1.7 μM, 24 h. How it is done: The selective removal of damaged/inhibited mitochondria by autophagosomes and lysosomes (i.e., mitophagy) was detected by using an EVOS epifluorescence cell imaging microscope (ThermoFisher, Waltham MA, USA). HeLa cells (5 × 10^4 cells/mL) were cultured in 2 mL DMEM in glass bottom culture dishes and exposed to Aur for 24 h. HeLa cells were incubated with 400 nM Hoechst (Bis-Benzimide H 33342 trihydrochloride), 500 nM MitoTracker-Green FM and 500 nM LysoTracker-Red for 30 min at 37°C for nuclei, mitochondria and lysosome detection, respectively. Afterwards, cells were washed, resuspended with DMEM medium without red phenol and placed in the EVOS microscope for their analysis.
To establish which cell processes were associated to Aur-dependent OxPhos inhibition, mitochondrial digestion (mitophagy) and ROS production were assayed in HeLa cells (Fig 2). Mitophagy is the selective removal of dysfunctional or damaged mitochondria by autophagosomes, which is triggered by mitochondrial inner membrane depolarization and the generation of reactive oxygen species (ROS). Mitophagy was assessed by the number of lysosomes and their co-localization with mitochondria in LTR/MTG-loaded cells by epifluorescence microscopy. […] In addition, dead cells were previously removed for the dye loading procedure, thus discarding unspecific drug effects on mitophagy. […]

On to `CC(=O)OC[C@H]1O[C@@H]([S-])[C@H](OC(C)=O)[C@@H](OC(C)=O)[C@@H]1OC(C)=O.CCP(CC)CC.[Au+]` [Aur, [1-(thio-κS)-β-D-glucopyranose-2,3,4,6-tetraacetyl] (triethylphosphine)-gold], for which the “mitophagy (MTG mitochondria/LTR lysosomes co-localization)” value is reported as “significant enhancement”.
